Data from PubChem BioAssay (NCI).
Where “and” joins values, the source holds several entries; their conditions need not be identical. Equal values may be shown once.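 These data come from cells grown in 96-well plates and exposed to compound for 48 hours at five concentrations. At the GI50, growth is halved. TGI: total growth inhibition.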

What follows are compounds tested on OVCAR-5 ovarian (assay: NCI-60 cell line screen, 48 h).

| SMILES | GI50 | TGI [µM] |
| --- | --- | --- |
| CC(=O)OC1CC(O)C23COC(O)C1(C)C2CC(O)C1(C)C3C(=O)C(O)C2(C)C(c3ccoc3)CC3OC321 (stereo unspecified) | > 36 µM | > 100 |
| Cn1cc(C(=O)c2ccccc2)ccc1=O | – | > 100 |
| COc1ccc(C(C)c2cc3c(cc2OC)OCO3)cc1 (stereo unspecified) | – | > 100 |
| O=C(CP(=O)(c1ccccc1)c1ccccc1)c1cccc(C(=O)CP(=O)(c2ccccc2)c2ccccc2)c1 | – | > 100 |
| CCc1[nH]c(=O)nc(N)c1-c1ccc(N2CCCCC2)c([N+](=O)[O-])c1 | – | > 100 |
| COC(=O)C(=O)C(C(=O)C(=O)Nc1ccccc1C(N)=O)c1nc2ccc(Cl)cc2[nH]c1=O (stereo unspecified) | – | > 100 |
| CCC#CC[C@H]1C/C=C2/C(=O)C=C[C@@H]2C/C=C\CCCC(=O)O1 | 1.74 µM | 6.92 |
| COc1cc(OC)c(/C=C/C(=O)c2c(OC)cccc2OC)c(OC)c1 | 2.17 µM | > 100 |
| COc1cc[nH]c1/C=C1\C(=O)Nc2ccccc21 | 15.3 µM | > 25 |
| CC(=O)OC[C@]12CC[C@H]3[C@@H](C[C@H]4O[C@]45[C@@H](O)C=CC(=O)[C@]35C)[C@@H]1CC[C@@H]2[C@H](C)[C@H]1CC(C)=C(C)C(=O)O1 | 0.883 µM and 1.21 µM | 2.5 |
| O=C(Nc1ccc(Cl)cc1)c1cc(-c2ccc(F)cc2)c2sc(=O)[nH]c2n1 | 2.34 µM | 7.9 |
| Cc1cn2c(/C=C3/C(=O)N(C)c4ccccc43)c(C)nc2s1 | 28.6 µM | > 100 |
| CCOC(=O)NC(=O)c1cn(CCOCCOC(=O)NCCCCCCNC(=O)OCCOCCn2cc(C(=O)NC(=O)OCC)c(=O)[nH]c2=O)c(=O)[nH]c1=O | – | > 100 |
| Cc1ccc(C(=NN=C(N)N)c2ccc(C)cc2)cc1 | 1.85 µM | 13.8 |
| CCS(=O)(=O)c1ccc(OC)c(Nc2ncc(-c3cccc(OC)c3)o2)c1 | 9.03 µM | > 25 |
| CCCCN=C(N)c1ccc(OCCSCCOc2ccc(C(N)=NCCCC)cc2)cc1 | 46.1 µM | > 100 |
| COC(=O)c1cccc2cccc(C(=O)Nc3ccc(C)cc3C)c12 | – | > 100 |
| CC(C)c1ccc(C(=O)Nc2sc3c(c2C(N)=O)CCC(=O)C3)cc1 | 1.16 µM | 3.08 |
| Cc1ccccc1N(CCC#N)C1=NN(C(=O)CC(=O)Nc2ccccc2)C(c2ccccc2)C1 (stereo unspecified) | – | > 100 |
| CC1(n2nc(-c3ccccc3)n(-c3ccccc3)c2=O)CSC1 | – | > 100 |

The compounds below were run on K-562 leukemia (assay: NCI-60 cell line screen, 48 h).

| SMILES | GI50 | TGI |
| --- | --- | --- |
| CC(=O)OC1CC(O)C23COC(O)C1(C)C2CC(O)C1(C)C3C(=O)C(O)C2(C)C(c3ccoc3)CC3OC321 (stereo unspecified) | < 0.01 µM | – |
| Cn1cc(C(=O)c2ccccc2)ccc1=O | – | > 100 µM |
| COc1ccc(C(C)c2cc3c(cc2OC)OCO3)cc1 (stereo unspecified) | – | > 57.6 µM |
| O=C(CP(=O)(c1ccccc1)c1ccccc1)c1cccc(C(=O)CP(=O)(c2ccccc2)c2ccccc2)c1 | – | > 100 µM |
| CCc1[nH]c(=O)nc(N)c1-c1ccc(N2CCCCC2)c([N+](=O)[O-])c1 | – | > 100 µM |
| COC(=O)C(=O)C(C(=O)C(=O)Nc1ccccc1C(N)=O)c1nc2ccc(Cl)cc2[nH]c1=O (stereo unspecified) | – | > 100 µM |
| CCC#CC[C@H]1C/C=C2/C(=O)C=C[C@@H]2C/C=C\CCCC(=O)O1 | 0.661 µM | 4.44 µM |
| COc1cc(OC)c(/C=C/C(=O)c2c(OC)cccc2OC)c(OC)c1 | 0.444 µM | > 100 µM |
| COc1cc[nH]c1/C=C1\C(=O)Nc2ccccc21 | 16.9 µM | > 25 µM |
| CC(=O)OC[C@]12CC[C@H]3[C@@H](C[C@H]4O[C@]45[C@@H](O)C=CC(=O)[C@]35C)[C@@H]1CC[C@@H]2[C@H](C)[C@H]1CC(C)=C(C)C(=O)O1 | 0.272 µM and 0.201 µM | 0.849 µM and 0.979 µM |
| O=C(Nc1ccc(Cl)cc1)c1cc(-c2ccc(F)cc2)c2sc(=O)[nH]c2n1 | 0.581 µM | 10.9 µM |
| Cc1cn2c(/C=C3/C(=O)N(C)c4ccccc43)c(C)nc2s1 | 2.23 µM | 7.15 µM |
| CCOC(=O)NC(=O)c1cn(CCOCCOC(=O)NCCCCCCNC(=O)OCCOCCn2cc(C(=O)NC(=O)OCC)c(=O)[nH]c2=O)c(=O)[nH]c1=O | – | > 100 µM |
| Cc1ccc(C(=NN=C(N)N)c2ccc(C)cc2)cc1 | 0.271 µM | 1.55 µM |
| CCS(=O)(=O)c1ccc(OC)c(Nc2ncc(-c3cccc(OC)c3)o2)c1 | 4.34 µM | > 25 µM |
| CCCCN=C(N)c1ccc(OCCSCCOc2ccc(C(N)=NCCCC)cc2)cc1 | 2.3 µM | > 100 µM |
| COC(=O)c1cccc2cccc(C(=O)Nc3ccc(C)cc3C)c12 | – | > 100 µM |
| CC(C)c1ccc(C(=O)Nc2sc3c(c2C(N)=O)CCC(=O)C3)cc1 | 0.207 µM | 3.83 µM |
| Cc1ccccc1N(CCC#N)C1=NN(C(=O)CC(=O)Nc2ccccc2)C(c2ccccc2)C1 (stereo unspecified) | – | > 100 µM |
| CC1(n2nc(-c3ccccc3)n(-c3ccccc3)c2=O)CSC1 | – | > 100 µM |

Each compound was assayed on SR leukemia (assay: NCI-60 cell line screen, 48 h).

| SMILES | GI50 | TGI |
| --- | --- | --- |
| CC(=O)OC1CC(O)C23COC(O)C1(C)C2CC(O)C1(C)C3C(=O)C(O)C2(C)C(c3ccoc3)CC3OC321 (stereo unspecified) | < 0.01 µM | 0.0544 µM |
| Cn1cc(C(=O)c2ccccc2)ccc1=O | – | > 100 µM |
| COc1ccc(C(C)c2cc3c(cc2OC)OCO3)cc1 (stereo unspecified) | – | > 5.04 µM |
| O=C(CP(=O)(c1ccccc1)c1ccccc1)c1cccc(C(=O)CP(=O)(c2ccccc2)c2ccccc2)c1 | – | > 100 µM |
| CCc1[nH]c(=O)nc(N)c1-c1ccc(N2CCCCC2)c([N+](=O)[O-])c1 | – | > 100 µM |
| COC(=O)C(=O)C(C(=O)C(=O)Nc1ccccc1C(N)=O)c1nc2ccc(Cl)cc2[nH]c1=O (stereo unspecified) | – | > 100 µM |
| CCC#CC[C@H]1C/C=C2/C(=O)C=C[C@@H]2C/C=C\CCCC(=O)O1 | 0.328 µM | 4.26 µM |
| COc1cc(OC)c(/C=C/C(=O)c2c(OC)cccc2OC)c(OC)c1 | 0.517 µM | > 100 µM |
| COc1cc[nH]c1/C=C1\C(=O)Nc2ccccc21 | 6.44 µM | > 22.7 µM |
| CC(=O)OC[C@]12CC[C@H]3[C@@H](C[C@H]4O[C@]45[C@@H](O)C=CC(=O)[C@]35C)[C@@H]1CC[C@@H]2[C@H](C)[C@H]1CC(C)=C(C)C(=O)O1 | 0.189 µM and 0.187 µM | 0.617 µM and 0.631 µM |
